Measured values taken from PMC8805119, “Spatial Distribution and Stability of Cholinesterase Inhibitory Protoberberine Alkaloids from Papaver setiferum” (Journal of Natural Products, 2021).
Like-named read-outs stand apart in the source and are kept apart here.

Columns and labels:
[1] = C. majus material; cited from earlier work
[2] = target: T1, electric eel acetylcholinesterase (eeAChE) (Electrophorus electricus, UniProt O42275); test: Cholinesterase inhibition assay (Ellman method), eeAChE; assay type: biochemical; details: for Ki: inhibition constant, Dixon plot, substrate 0.125, 0.25, 0.5 mM
T1 construct: purchased Sigma-Aldrich
Method: (§1) Cholinesterase activities were measured by the Ellman method[58] adapted for 96-well microtiter plates, as previously described.[59] The compounds were first screened for the IC50 determination, and for those with IC50 < 200 μM, the inhibitory constants (Ki) were determined. Stock solutions of the tested compounds (5 mg/mL) and of the positive control (1 mg/mL neostigmine bromide, Sigma-Aldrich, St. Louis, MO, USA) were prepared in 100% MeOH. These solutions were added to the wells and gradually diluted in 100 mM potassium phosphate buffer (pH 7.4) to the final volume of 50 μL. Acetylthiocholine chloride and 5,5′-dithiobis-2-nitrobenzoic acid were then dissolved in the same buffer to the respective final concentrations of 1 and 0.5 mM and added (100 μL) to the wells of the microtiter plates. eeAChE, hrAChE, or hsBChE (all Sigma-Aldrich) were dissolved in the same buffer to 0.0075 U/mL. A 50 μL amount of each of the cholinesterases was added to start the reactions, which were followed spectrophotometrically at 405 nm and 25 °C for 5 min using a kinetic microplate reader (Dynex Technologies Inc., Chantilly, VA, USA). Blank reactions without the inhibitors were run in the presence of the appropriate dilution of MeOH in 100 mM potassium phosphate buffer (pH 7.4). The concentrations of the compounds inducing 50% inhibition of enzyme activity (IC50) were determined and expressed as mean values ± SEM. To determine the inhibition constants (Ki), the kinetics were monitored using three different final substrate concentrations (0.125, 0.25, 0.5 mM). Each measurement was repeated at least three times. Data were analyzed using OriginPro software (OriginPro 2020, OriginLab Corporation, Northampton, MA, USA).

[3] = Storage stability of isolated compounds (oxidation); assay type: physicochemical
Method: These findings are of interest as they contrast with observations from the present work. In this study, no special precautions were taken in the isolation of 1 and 2, although the laboratory studies were conducted relatively quickly: only 9 days elapsed from the collection of fresh plants to the acquisition of NMR data (see Supporting Information, Figure S31 for a detailed isolation timeline). […] Comparison of the present methodology with the approaches used by Tsai and Lee[25] and Paulsen et al.[26] has led to the hypothesis that the use of a strong acid (0.1% TFA, pH ∼2.0) during HPLC may be an important component of compound stability. In the present investigation, 0.1% TFA was used in both solvents during HPLC purification, and the same was done by Tsai and Lee. Conversely, Paulsen et al. opted for a three-solvent system of 10 mM (NH4)2SO3, 0.2% triethylamine adjusted with acetic acid to pH 4.0 (solvent A), CH3CN (solvent B), and MeOH (solvent C). Their observation that 13,14-dihydrocoptisine oxidized repeatedly after HPLC leads to the present conclusion that these conditions may have been insufficiently acidic to stabilize the compound. However, this was not tested in the current work. Further, given the varied substitution of the aromatic motifs in these compounds, the role these groups play upon stability cannot be yet ascertained. […]

[4] = target: T2, human recombinant acetylcholinesterase (hrAChE) (Homo sapiens, UniProt P22303); test: Cholinesterase inhibition assay (Ellman method), hrAChE; assay type: biochemical; details: for Ki: inhibition constant, Dixon plot, substrate 0.125, 0.25, 0.5 mM
T2 construct: purchased Sigma-Aldrich
Method: as §1

[5] = Protoberberine oxidation analysis in P. setiferum capsules (oven 40 °C vs freezer -20 °C, LC-MS); assay type: physicochemical, Papaver setiferum; details: 2 weeks
Method: The alkaloid analysis was based on De Vos et al. (2007).[57]P. setiferum material was collected at four time points: (1) approximately 3 days before flowering, (2) during flowering, (3) approximately 2 weeks after flowering, and (4) approximately 4 weeks after flowering (by which point the flowers had dried and turned brown). At each collection time, a sample of the aerial parts (three separate stems, each with several leaves and a capsule) was collected and stored at −20 °C. The samples were later separated into capsules, leaves, and stems and ground into a powder using a mortar and pestle. One hundred milligrams (±5 mg) of each was transferred into an Eppendorf tube, and each weight was recorded. Cold MeOH (0.1% FA) was added to each in a 1:10 w/v ratio, and the tubes were sonicated for 30 min. The samples were centrifuged for 5 min at 13 000 rpm, and the supernatant was filtered (0.2 μm). A pooled sample was prepared by taking 20 μL from each sample and combining into a single vial. All samples were diluted 1:10 in Milli-Q water prior to LC-MS analysis. The samples were randomly ordered for LC-MS, with the pooled sample run interspaced after every fourth sample. An injection volume of 2 μL was used for each sample. The solvents used were 5% CH3CN (0.1% FA) (solvent A) and 95% CH3CN (0.1% FA) (solvent B). The column used was a Phenomenex Kinetex XB-C18 (2.6 μm, 100 Å, 3.0 × 100 mm) with a linear solvent gradient from 15% to 50% solvent B over 20 min. Alkaloids were identified by comparison of retention times with authentic standards.
From three P. setiferum capsules [taken from time point (1) in the time series analysis], two lots of 100 ± 5 mg of material were weighed into Eppendorf tubes. One set of samples was stored with the lids open in the oven at 40 °C, while the others were stored in the freezer at −20 °C. After 2 weeks, the samples were analyzed by LC-MS, as described above.

[6] = target: T3, horse serum butyrylcholinesterase (hsBChE) (Equus caballus, UniProt P81908); test: biochemical; assay type: biochemical; details: for Ki: inhibition constant, Dixon plot, substrate 0.125, 0.25, 0.5 mM; for IC50: means ± SEM of three independent measurements; for selectivity for BChE: hsBChE versus AChEs
T3 construct: purchased Sigma-Aldrich; host or cells: horse serum
Method: as §1

[7] = AChEs (eeAChE and hrAChE), compared to 2
[8] = means ± SEM of three independent measurements, read-out: eeAChE IC50
[9] = means ± SEM of three independent measurements, read-out: hrAChE IC50

T1 sequence (O42275 24-633): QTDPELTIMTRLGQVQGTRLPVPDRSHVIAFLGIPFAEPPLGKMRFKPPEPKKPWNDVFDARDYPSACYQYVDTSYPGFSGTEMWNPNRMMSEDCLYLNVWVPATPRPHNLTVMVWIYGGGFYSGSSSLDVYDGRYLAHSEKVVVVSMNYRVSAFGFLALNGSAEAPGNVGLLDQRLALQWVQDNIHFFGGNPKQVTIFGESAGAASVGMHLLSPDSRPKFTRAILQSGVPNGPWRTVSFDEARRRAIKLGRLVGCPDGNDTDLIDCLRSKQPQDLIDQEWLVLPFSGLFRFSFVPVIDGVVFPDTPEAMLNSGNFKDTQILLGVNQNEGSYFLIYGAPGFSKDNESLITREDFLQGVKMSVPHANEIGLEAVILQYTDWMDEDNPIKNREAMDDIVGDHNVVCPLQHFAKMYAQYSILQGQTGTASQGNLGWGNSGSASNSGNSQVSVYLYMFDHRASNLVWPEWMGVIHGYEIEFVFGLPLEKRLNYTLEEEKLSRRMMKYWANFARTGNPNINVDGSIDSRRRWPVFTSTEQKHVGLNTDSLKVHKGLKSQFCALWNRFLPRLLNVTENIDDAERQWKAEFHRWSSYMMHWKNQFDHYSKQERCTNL
T3 sequence (P81908 whole entry): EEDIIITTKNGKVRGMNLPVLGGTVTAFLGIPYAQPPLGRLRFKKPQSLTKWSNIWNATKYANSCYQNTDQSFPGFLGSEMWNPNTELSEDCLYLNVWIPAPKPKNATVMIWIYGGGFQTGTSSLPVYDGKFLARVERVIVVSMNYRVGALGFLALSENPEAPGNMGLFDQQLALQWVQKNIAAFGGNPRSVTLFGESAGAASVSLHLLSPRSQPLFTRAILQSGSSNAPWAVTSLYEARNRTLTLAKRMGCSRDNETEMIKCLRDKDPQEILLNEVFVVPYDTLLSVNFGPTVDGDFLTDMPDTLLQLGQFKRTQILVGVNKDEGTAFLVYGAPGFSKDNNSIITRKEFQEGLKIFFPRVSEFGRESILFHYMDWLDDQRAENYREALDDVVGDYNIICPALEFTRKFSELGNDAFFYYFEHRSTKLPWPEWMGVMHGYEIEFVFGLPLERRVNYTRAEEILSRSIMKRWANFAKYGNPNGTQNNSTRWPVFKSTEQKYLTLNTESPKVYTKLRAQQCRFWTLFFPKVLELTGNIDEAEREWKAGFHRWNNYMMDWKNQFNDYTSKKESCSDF
T2 sequence (P22303 32-614): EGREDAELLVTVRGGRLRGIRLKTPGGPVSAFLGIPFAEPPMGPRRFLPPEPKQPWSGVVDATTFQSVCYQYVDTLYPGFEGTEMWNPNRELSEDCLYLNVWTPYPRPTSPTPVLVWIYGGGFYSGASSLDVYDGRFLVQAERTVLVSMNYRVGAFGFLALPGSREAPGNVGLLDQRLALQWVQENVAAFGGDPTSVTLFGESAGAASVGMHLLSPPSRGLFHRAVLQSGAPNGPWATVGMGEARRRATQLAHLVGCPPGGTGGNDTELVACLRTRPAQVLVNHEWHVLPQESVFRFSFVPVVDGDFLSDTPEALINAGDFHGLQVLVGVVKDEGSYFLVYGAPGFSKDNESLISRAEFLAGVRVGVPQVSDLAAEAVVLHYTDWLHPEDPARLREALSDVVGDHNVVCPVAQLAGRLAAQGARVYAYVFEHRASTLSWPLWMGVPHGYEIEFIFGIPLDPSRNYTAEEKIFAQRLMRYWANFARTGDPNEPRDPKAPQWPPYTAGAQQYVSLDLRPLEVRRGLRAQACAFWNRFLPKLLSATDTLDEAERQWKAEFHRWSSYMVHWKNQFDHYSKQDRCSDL

| SMILES | Ki [2] [µM] | IC50 [2, 8] [µM] | Ki [4] [µM] | IC50 [4, 9] [µM] | change of concentration in oven-dried capsules versus capsules stored at -20 °C [5] | Ki [6] [µM] | IC50 [6] [µM] | other results |
| --- | --- | --- | --- | --- | --- | --- | --- | --- |
| C1=[N+]2CCc3cc4c(cc3C2Cc2ccc3c(c21)OCO3)OCO4 (stereo not shown) [13,14-dihydrocoptisine] |  |  |  |  |  |  |  | oxidation after oven-drying of plant material [1]: complete oxidation |
| COc1cc2c(c(CO)c1OC)C[C@H]1c3c(cc4c(c3OC)OCO4)CC[N+]1=C2.O=C([O-])C(F)(F)F [Compound 1, 7,8-Didehydromecambridine TFA salt] | 7 | 10.3 ± 1.1 | 31 | 66.6 ± 2.4 | minor decrease in concentration | 58.5 | 100 ± 5 | lower activity against AChEs when compared to 2 [2, 7]: approximately 3 fold; lower inhibition constants when compared to 2 [2, 7]: ~6 fold; oxidation of dried sample on storage ([3]; TFA salt, 0.7 mg, uncapped glass vial, room temperature, approximately 8 weeks): no oxidation to 3 |
| COc1cc2c(c3c1OCOC3)C[C@H]1c3c(cc4c(c3OC)OCO4)CC[N+]1=C2.O=C([O-])C(F)(F)F [Compound 2, 7,8-Didehydroorientalidine TFA salt] | 1 | 3.4 ± 4.7 | 6.3 | 18.9 ± 1.8 | minor decrease in concentration | 47 | 98.5 ± 0.6 |  |
| COc1cc2c[n+]3c(cc2c(CO)c1OC)-c1c(cc2c(c1OC)OCO2)CC3 [Compound 3, alborine] | 3.6 | 6.8 ± 4.5 | 13.2 | 20 ± 0.9 | approximately doubling | 43.7 | 63.1 ± 0.5 |  |
| COc1cc2c(c3c1OCOC3)C[C@H]1c3c(cc4c(c3OC)OCO4)CCN1C2 [Compound 4, orientalidine] | 2 | 5 ± 1 | 13.7 | 19.9 ± 1.1 |  | 35.5 | 104 ± 4 | oxidation on standing in an NMR tube ([3]; 1:1 mixture of 4 and 5 (fraction C.12), four months): complete oxidation of 4 to 5 |
| COc1cc2c[n+]3c(cc2c2c1OCOC2)-c1c(cc2c(c1OC)OCO2)CC3 [Compound 5, 7,8,13,14-dehydroorientalidine] |  |  |  |  | below the level of detection |  |  |  |
| COc1cc2c3c(c1O)-c1c(cccc1OC)C[C@@H]3N(C)CC2 [Compound 6, isothebaine] | 68 | 260 ± 1 |  |  |  | 0.6 | 2.8 ± 3 | IC50 [4]: > 342 µM; selectivity for BChE [6]: good selectivity for BChE |
| COc1cc2c3c(c1O)-c1c(cccc1OC)C[C@@H]3[N+](C)(C)CC2 [Compound 7, N-methylisothebainium] |  | > 342 |  | > 342 |  | 2.2 | 7.1 ± 2.7 | selectivity for BChE [6]: good selectivity for BChE |
| COc1cc(C[C@H]2c3cc(O)c(OC)cc3CC[N+]2(C)C)ccc1O [Compound 8, N-methylorientaline] |  | > 342 |  | > 342 |  |  | 342 ± 3 |  |
| COc1cc2c(cc1O)[C@H](Cc1ccc(OC)c(OC)c1)[N+](C)(C)CC2 [Compound 9, N-methylcodamine] |  | > 342 |  | > 342 |  |  | 221 ± 1 |  |
| COC1=C[C@]23CCN(C)[C@H](Cc4ccc(OC)c(O)c42)C3=CC1=O [Compound 10, salutaridine] |  |  |  |  |  |  |  | IC50 [2]: > 342 µM; IC50 [4]: > 342 µM |
| O=[N+]([O-])CCc1ccc(O[C@@H]2O[C@H](CO[C@@H]3OC[C@@H](O)[C@H](O)[C@H]3O)[C@@H](O)[C@H](O)[C@H]2O)cc1 [Compound 11, thalictricoside] |  | > 342 |  | > 342 |  |  | > 342 |  |
